According to ChEMBL document CHEMBL4011590, “Structure-activity relationship studies on 3,5-dinitrophenyl tetrazoles as antitubercular agents” (Eur J Med Chem, 2017):
pIC50: −log10 of the molar value. In brackets after ≈: the same amount, converted by molar mass.

Key:
[1] = tested on: Mycobacterium tuberculosis; test: Antimycobacterial activity against Mycobacterium tuberculosis H37Rv CNCTC My 331/88 after 14 days by micromethod; format: functional; conditions: H37Rv CNCTC My 331/88, 336 h
[2] = tested on: Mycobacterium tuberculosis; test: Antimycobacterial activity against Mycobacterium tuberculosis H37Rv CNCTC My 331/88 after 21 days by micromethod; format: functional; conditions: H37Rv CNCTC My 331/88, 504 h
Mycobacterium avium [3] = test: Antimycobacterial activity against Mycobacterium avium CNCTC My 330/80 after 14 days by micromethod; format: functional; conditions: CNCTC My 330/80, 336 h
Mycobacterium avium [4] = test: Antimycobacterial activity against Mycobacterium avium CNCTC My 330/80 after 21 days by micromethod; format: functional; conditions: CNCTC My 330/80, 504 h
Mycobacterium kansasii [5] = test: Antimycobacterial activity against Mycobacterium kansasii CNCTC My 235/80 after 7 days by micromethod; format: functional; conditions: CNCTC My 235/80, 168 h
Mycobacterium kansasii [6] = test: Antimycobacterial activity against Mycobacterium kansasii CNCTC My 235/80 after 14 days by micromethod; format: functional; conditions: CNCTC My 235/80, 336 h
Mycobacterium kansasii [7] = test: Antimycobacterial activity against Mycobacterium kansasii CNCTC My 235/80 after 21 days by micromethod; format: functional; conditions: CNCTC My 235/80, 504 h
Mycobacterium kansasii [8] = test: Antimycobacterial activity against Mycobacterium kansasii isolate 6509/96 after 7 days by micromethod; format: functional; conditions: isolate 6509/96, 168 h
Mycobacterium kansasii [9] = test: Antimycobacterial activity against Mycobacterium kansasii isolate 6509/96 after 14 days by micromethod; format: functional; conditions: isolate 6509/96, 336 h
Mycobacterium kansasii [10] = test: Antimycobacterial activity against Mycobacterium kansasii isolate 6509/96 after 21 days by micromethod; format: functional; conditions: isolate 6509/96, 504 h
CHO-K1 = test: Cytotoxicity against CHOK1 cells after 24 hrs by MTT assay; format: cell-based; conditions: Cricetulus griseus, CHO-K1, 24 h
Staphylococcus aureus [11] = test: Antibacterial activity against Staphylococcus aureus ATCC 6538 after 24 hrs by broth microdilution method; format: functional; conditions: ATCC 6538, 24 h
Staphylococcus aureus [12] = test: Antibacterial activity against Staphylococcus aureus ATCC 6538 after 48 hrs by broth microdilution method; format: functional; conditions: ATCC 6538, 48 h
Staphylococcus aureus [13] = test: Antibacterial activity against methicillin-resistant Staphylococcus aureus HK5996/08 after 24 hrs by broth microdilution method; format: functional; conditions: HK5996/08, 24 h
Staphylococcus aureus [14] = test: Antibacterial activity against methicillin-resistant Staphylococcus aureus HK5996/08 after 48 hrs by broth microdilution method; format: functional; conditions: HK5996/08, 48 h
[15] = tested on: Staphylococcus epidermidis; test: Antibacterial activity against Staphylococcus epidermidis HK6966/08 after 24 hrs by broth microdilution method; format: functional; conditions: HK6966/08, 24 h
[16] = tested on: Staphylococcus epidermidis; test: Antibacterial activity against Staphylococcus epidermidis HK6966/08 after 48 hrs by broth microdilution method; format: functional; conditions: HK6966/08, 48 h
Enterococcus sp. [17] = test: Antibacterial activity against Enterococcus sp. HK14365/08 after 24 hrs by broth microdilution method; format: functional; conditions: HK14365/08, 24 h
Enterococcus sp. [18] = test: Antibacterial activity against Enterococcus sp. HK14365/08 after 48 hrs by broth microdilution method; format: functional; conditions: HK14365/08, 48 h
Escherichia coli [19] = test: Antibacterial activity against Escherichia coli ATCC 8739 after 24 hrs by broth microdilution method; format: functional; conditions: ATCC 8739, 24 h
Escherichia coli [20] = test: Antibacterial activity against Escherichia coli ATCC 8739 after 48 hrs by broth microdilution method; format: functional; conditions: ATCC 8739, 48 h
Klebsiella pneumoniae [21] = test: Antibacterial activity against Klebsiella pneumoniae HK11750/08 after 24 hrs by broth microdilution method; format: functional; conditions: HK11750/08, 24 h
Klebsiella pneumoniae [22] = test: Antibacterial activity against Klebsiella pneumoniae HK11750/08 after 48 hrs by broth microdilution method; format: functional; conditions: HK11750/08, 48 h
Klebsiella pneumoniae [23] = test: Antibacterial activity against extended spectrum beta-lactamase producing Klebsiella pneumoniae HK14368/08 after 24 hrs by broth microdilution method; format: functional; conditions: HK14368/08, 24 h
Klebsiella pneumoniae [24] = test: Antibacterial activity against extended spectrum beta-lactamase producing Klebsiella pneumoniae HK14368/08 after 48 hrs by broth microdilution method; format: functional; conditions: HK14368/08, 48 h
Pseudomonas aeruginosa [25] = test: Antibacterial activity against Pseudomonas aeruginosa ATCC 9027 after 24 hrs by broth microdilution method; format: functional; conditions: ATCC 9027, 24 h
Pseudomonas aeruginosa [26] = test: Antibacterial activity against Pseudomonas aeruginosa ATCC 9027 after 48 hrs by broth microdilution method; format: functional; conditions: ATCC 9027, 48 h
Candida albicans [27] = test: Antifungal activity against Candida albicans ATCC 44859 after 24 hrs by broth microdilution method; format: functional; conditions: ATCC 44859, 24 h
Candida albicans [28] = test: Antifungal activity against Candida albicans ATCC 44859 after 48 hrs by broth microdilution method; format: functional; conditions: ATCC 44859, 48 h
Candida tropicalis [29] = test: Antifungal activity against Candida tropicalis 156 after 24 hrs by broth microdilution method; format: functional; conditions: Candida tropicalis, 156, 24 h
Candida tropicalis [30] = test: Antifungal activity against Candida tropicalis 156 after 48 hrs by broth microdilution method; format: functional; conditions: Candida tropicalis, 156, 48 h
Pichia kudriavzevii [31] = test: Antifungal activity against Candida krusei E28 after 24 hrs by broth microdilution method; format: functional; conditions: E28, 24 h
Pichia kudriavzevii [32] = test: Antifungal activity against Candida krusei E28 after 48 hrs by broth microdilution method; format: functional; conditions: E28, 48 h
Nakaseomyces glabratus [33] = test: Antifungal activity against Candida glabrata 20/I after 24 hrs by broth microdilution method; format: functional
Nakaseomyces glabratus [34] = test: Antifungal activity against Candida glabrata 20/I after 48 hrs by broth microdilution method; format: functional
Trichosporon asahii [35] = test: Antifungal activity against Trichosporon asahii 1188 after 24 hrs by broth microdilution method; format: functional; conditions: Trichosporon asahii, 1188, 24 h
Trichosporon asahii [36] = test: Antifungal activity against Trichosporon asahii 1188 after 48 hrs by broth microdilution method; format: functional; conditions: Trichosporon asahii, 1188, 48 h
Aspergillus fumigatus [37] = test: Antifungal activity against Aspergillus fumigatus 231 after 24 hrs by broth microdilution method; format: functional; conditions: Aspergillus fumigatus, 231, 24 h
Aspergillus fumigatus [38] = test: Antifungal activity against Aspergillus fumigatus 231 after 48 hrs by broth microdilution method; format: functional; conditions: Aspergillus fumigatus, 231, 48 h
Lichtheimia corymbifera [39] = test: Antifungal activity against Absidia corymbifera 272 after 24 hrs by broth microdilution method; format: functional; conditions: Lichtheimia corymbifera, 272, 24 h
Lichtheimia corymbifera [40] = test: Antifungal activity against Absidia corymbifera 272 after 48 hrs by broth microdilution method; format: functional; conditions: Lichtheimia corymbifera, 272, 48 h
[41] = tested on: Trichophyton mentagrophytes; test: Antifungal activity against Trichophyton mentagrophytes 445 after 72 hrs by broth microdilution method; format: functional; conditions: Trichophyton mentagrophytes, 445, 72 h
[42] = tested on: Trichophyton mentagrophytes; test: Antifungal activity against Trichophyton mentagrophytes 445 after 120 hrs by broth microdilution method; format: functional; conditions: Trichophyton mentagrophytes, 445, 120 h

CCCCCCCCCCCCn1nnc(-c2cc([N+](=O)[O-])cc([N+](=O)[O-])c2)n1
MIC99 [1]: 1 µM (≈ 0.404 µg/mL) | MIC99 [2]: 2 µM (≈ 0.809 µg/mL) | MIC99 (Mycobacterium avium [3]): 8 µM (≈ 3.24 µg/mL) | MIC99 (Mycobacterium avium [4]): 16 µM (≈ 6.47 µg/mL) | MIC99 (Mycobacterium kansasii [5]): 4 µM (≈ 1.62 µg/mL) | MIC99 (Mycobacterium kansasii [6]): 8 µM (≈ 3.24 µg/mL) | MIC99 (Mycobacterium kansasii [7]): 8 µM (≈ 3.24 µg/mL) | MIC99 (Mycobacterium kansasii [8]): 2 µM (≈ 0.809 µg/mL) | MIC99 (Mycobacterium kansasii [9]): 4 µM (≈ 1.62 µg/mL) | MIC99 (Mycobacterium kansasii [10]): 4 µM (≈ 1.62 µg/mL) | pIC50 (CHO-K1): < 3.70 | MIC (Staphylococcus aureus [11]): > 250 µM | MIC (Staphylococcus aureus [12]): > 250 µM | MIC (Staphylococcus aureus [13]): > 250 µM | MIC (Staphylococcus aureus [14]): > 250 µM | MIC [15]: > 250 µM | MIC [16]: > 250 µM | MIC (Enterococcus sp. [17]): > 250 µM | MIC (Enterococcus sp. [18]): > 250 µM | MIC (Escherichia coli [19]): > 250 µM | MIC (Escherichia coli [20]): > 250 µM | MIC (Klebsiella pneumoniae [21]): > 250 µM | MIC (Klebsiella pneumoniae [22]): > 250 µM | MIC (Klebsiella pneumoniae [23]): > 250 µM | MIC (Klebsiella pneumoniae [24]): > 250 µM | MIC (Pseudomonas aeruginosa [25]): > 250 µM | MIC (Pseudomonas aeruginosa [26]): > 250 µM | MIC (Candida albicans [27]): > 250 µM | MIC (Candida albicans [28]): > 250 µM | MIC (Candida tropicalis [29]): > 250 µM | MIC (Candida tropicalis [30]): > 250 µM | MIC (Pichia kudriavzevii [31]): > 250 µM | MIC (Pichia kudriavzevii [32]): > 250 µM | MIC (Nakaseomyces glabratus [33]): > 250 µM | MIC (Nakaseomyces glabratus [34]): > 250 µM | MIC (Trichosporon asahii [35]): > 250 µM | MIC (Trichosporon asahii [36]): > 250 µM | MIC (Aspergillus fumigatus [37]): > 250 µM | MIC (Aspergillus fumigatus [38]): > 250 µM | MIC (Lichtheimia corymbifera [39]): > 250 µM | MIC (Lichtheimia corymbifera [40]): > 250 µM | MIC [41]: > 250 µM | MIC [42]: > 250 µM

O=[N+]([O-])c1cc(-c2nnn(CSc3nnnn3-c3ccccc3)n2)cc([N+](=O)[O-])c1
MIC99 [1]: 0.125 µM (≈ 0.0533 µg/mL) | MIC99 [2]: 0.25 µM (≈ 0.107 µg/mL) | MIC99 (Mycobacterium kansasii [5]): 1 µM (≈ 0.426 µg/mL) | MIC99 (Mycobacterium kansasii [6]): 2 µM (≈ 0.853 µg/mL) | MIC99 (Mycobacterium kansasii [7]): 4 µM (≈ 1.71 µg/mL) | MIC99 (Mycobacterium kansasii [8]): 0.5 µM (≈ 0.213 µg/mL) | MIC99 (Mycobacterium kansasii [9]): 1 µM (≈ 0.426 µg/mL) | MIC99 (Mycobacterium kansasii [10]): 2 µM (≈ 0.853 µg/mL) | MIC (Staphylococcus aureus [11]): > 125 µM | MIC (Staphylococcus aureus [12]): > 125 µM | MIC (Staphylococcus aureus [13]): > 125 µM | MIC (Staphylococcus aureus [14]): > 125 µM | MIC [15]: > 125 µM | MIC [16]: > 125 µM | MIC (Enterococcus sp. [17]): > 125 µM | MIC (Enterococcus sp. [18]): > 125 µM | MIC (Escherichia coli [19]): > 125 µM | MIC (Escherichia coli [20]): > 125 µM | MIC (Klebsiella pneumoniae [21]): > 125 µM | MIC (Klebsiella pneumoniae [22]): > 125 µM | MIC (Klebsiella pneumoniae [23]): > 125 µM | MIC (Klebsiella pneumoniae [24]): > 125 µM | MIC (Pseudomonas aeruginosa [25]): > 125 µM | MIC (Pseudomonas aeruginosa [26]): > 125 µM | MIC (Candida albicans [27]): > 125 µM | MIC (Candida albicans [28]): > 125 µM | MIC (Candida tropicalis [29]): > 125 µM | MIC (Candida tropicalis [30]): > 125 µM | MIC (Pichia kudriavzevii [31]): > 125 µM | MIC (Pichia kudriavzevii [32]): > 125 µM | MIC (Nakaseomyces glabratus [33]): > 125 µM | MIC (Nakaseomyces glabratus [34]): > 125 µM | MIC (Trichosporon asahii [35]): > 125 µM | MIC (Trichosporon asahii [36]): > 125 µM | MIC (Aspergillus fumigatus [37]): > 125 µM | MIC (Aspergillus fumigatus [38]): > 125 µM | MIC (Lichtheimia corymbifera [39]): > 125 µM | MIC (Lichtheimia corymbifera [40]): > 125 µM | MIC [41]: > 125 µM | MIC [42]: > 125 µM
